Drawing on patent US20120039847A1, “Hepatitis C Virus Inhibitors” (priority 2010, published 2012), this text covers IC50 for 16 compounds.

The test system of this experiment is HCV genotype 1b replicon (2209-23 cells, Huh7). Put plainly: HCV replicon assay (Renilla luciferase reporter). The class given is cell-based. The settings on record: Hepatitis C virus, Huh-7, 72 h, Huh7-derived cell line 2209-23, three days incubation, luciferase readout.
As to `COC(=O)N[C@H](C(=O)N1CCC[C@H]1c1ncc(-c2ccc(-c3ccc4cc(NC(=O)[C@@H]5CCCN5C(=O)c5ccccc5)ccc4n3)cc2)[nH]1)C(C)C` [I-15, ((S)-1-{(S)-2-[5-(4-{6-[((S)-1-Benzoyl-pyrrolidine-2-carbonyl)-amino]-quinolin-2-yl}-phenyl)-1H-imidazol-2-yl]-pyrrolidine-1-carbonyl}-2-methyl-propyl)-carbamic acid methyl ester], half-maximal inhibition (IC50) was put at 1.4 nM.

In the case of `COC(=O)N[C@H](C(=O)N1CCC[C@H]1C(=O)Nc1ccc2nc(-c3ccc(-c4cnc([C@@H]5CCCN5C(=O)[C@@H](NC(=O)OC)C(C)C)[nH]4)cc3)ccc2c1)C(C)C` [I-3, ((S)-1-{(S)-2-[2-(4-{2-[(S)-1-((S)-2-Methoxycarbonylamino-3-methyl-butyryl)-pyrrolidin-2-yl]-3H-imidazol-4-yl}-phenyl)-quinolin-6-ylcarbamoyl]-pyrrolidine-1-carbonyl}-2-methyl-propyl)-carbamic acid methyl ester], the IC50 is 0.413 nM.

As for `COC(=O)N[C@H](C(=O)N1CCC[C@H]1C(=O)Nc1ccc2cc(-c3ccc(-c4cnc([C@@H]5CCCN5C(=O)[C@@H](NC(=O)OC)C(C)C)[nH]4)cc3)ccc2c1)C(C)C` [I-1, ((S)-1-{(S)-2-[6-(4-{2-[(S)-1-((S)-2-Methoxycarbonylamino-3-methyl-butyryl)-pyrrolidin-2-yl]-3H-imidazol-4-yl}-phenyl)-naphthalen-2-ylcarbamoyl]-pyrrolidine-1-carbonyl}-2-methyl-propyl)-carbamic acid methyl ester], the IC50 worked out at 0.041 nM.

Compound `COC(=O)N[C@H](C(=O)N1CCC[C@H]1C(=O)NCc1ccc(-c2ccc(-c3cnc([C@@H]4CCCN4C(=O)[C@@H](NC(=O)OC)C(C)C)[nH]3)cc2)cc1)C(C)C` [I-16, ((S)-1-{(S)-2-[(4′-{2-[(S)-1-((S)-2-Methoxycarbonylamino-3-methyl-butyryl)-pyrrolidin-2-yl]-3H-imidazol-4-yl}-biphenyl-4-ylmethyl)-carbamoyl]-pyrrolidine-1-carbonyl}-2-methyl-propyl)-carbamic acid methyl ester] displayed a half-inhibitory concentration (IC50) of 1.23 nM.

Regarding `COC(=O)N[C@H](C(=O)N1CCC[C@H]1C(=O)Nc1nccc2cc(-c3ccc(-c4cnc([C@@H]5CCCN5C(=O)[C@@H](NC(=O)OC)C(C)C)[nH]4)cc3)ccc12)C(C)C` [I-6, [(S)-1-((S)-2-{5-[4-(1-{[(S)-1-((S)-2-Methoxycarbonylamino-3-methyl-butyryl)-pyrrolidine-2-carbonyl]-amino}-isoquinolin-6-yl)-phenyl]-1H-imidazol-2-yl}-pyrrolidine-1-carbonyl)-2-methyl-propyl]-carbamic acid methyl ester], the half-maximal inhibitory concentration (IC50) is 13.9 nM.

On to `COC(=O)N[C@H](C(=O)N1CCC[C@H]1C(=O)Nc1ccc2cc(-c3ccc(-c4cnc([C@@H]5CCCN5C(=O)[C@@H](NC(=O)OC)C(C)C)[nH]4)cc3)ccc2n1)C(C)C` [I-7, ((S)-1-{(S)-2-[6-(4-{2-[(S)-1-((S)-2-Methoxycarbonylamino-3-methyl-butyryl)-pyrrolidin-2-yl]-3H-imidazol-4-yl}-phenyl)-quinolin-2-ylcarbamoyl]-pyrrolidine-1-carbonyl}-2-methyl-propyl)-carbamic acid methyl ester], for which half-maximal inhibition (IC50) was put at 0.15 nM.

As to `COC(=O)N[C@H](C(=O)N1CCC[C@H]1C(=O)Nc1nc2cc(-c3ccc(-c4cnc([C@@H]5CCCN5C(=O)[C@@H](NC(=O)OC)C(C)C)[nH]4)cc3)ccc2[nH]1)C(C)C` [I-8, [(S)-1-((S)-2-{5-[4-(2-{[(S)-1-((S)-2-Methoxycarbonylamino-3-methyl-butyryl)-pyrrolidine-2-carbonyl]-amino}-1H-benzoimidazol-5-yl)-phenyl]-1H-imidazol-2-yl}-pyrrolidine-1-carbonyl)-2-methyl-propyl]-carbamic acid methyl ester], inhibition was half-maximal at 0.37 nM (IC50).

`COC(=O)N[C@H](C(=O)N1CCC[C@H]1C(=O)Nc1cccc2cc(-c3ccc(-c4cnc([C@@H]5CCCN5C(=O)[C@@H](NC(=O)OC)C(C)C)[nH]4)cc3)ccc12)C(C)C` [I-5, [(S)-1-((S)-2-{5-[4-(5-{[(S)-1-((S)-2-Methoxycarbonylamino-3-methyl-butyryl)-pyrrolidine-2-carbonyl]-amino}-naphthalen-2-yl)-phenyl]-1H-imidazol-2-yl}-pyrrolidine-1-carbonyl)-2-methyl-propyl]-carbamic acid methyl ester]: 0.2 nM corresponded to half-maximal inhibition (IC50).

On to `COC(=O)N[C@H](C(=O)N1CCC[C@H]1C(=O)NC1CCc2cc(-c3ccc(-c4cnc([C@@H]5CCCN5C(=O)[C@@H](NC(=O)OC)C(C)C)[nH]4)cc3)ccc21)C(C)C` (stereo partly drawn) [I-4, [(S)-1-((S)-2-{5-[4-(1-{[(S)-1-((S)-2-Methoxycarbonylamino-3-methyl-butyryl)-pyrrolidine-2-carbonyl]-amino}-indan-5-yl)-phenyl]-1H-imidazol-2-yl}-pyrrolidine-1-carbonyl)-2-methyl-propyl]-carbamic acid methyl ester], for which the IC50 amounted to 0.31 nM.

As to `COC(=O)N[C@H](C(=O)N1CCC[C@H]1C(=O)NC1CCCc2cc(-c3ccc(-c4cnc([C@@H]5CCCN5C(=O)[C@@H](NC(=O)OC)C(C)C)[nH]4)cc3)ccc21)C(C)C` (stereo partly drawn) [I-2, [(S)-1-((S)-2-{5-[4-(5-{[(S)-1-((S)-2-Methoxycarbonylamino-3-methyl-butyryl)-pyrrolidine-2-carbonyl]-amino}-5,6,7,8-tetrahydro-naphthalen-2-yl)-phenyl]-1H-imidazol-2-yl}-pyrrolidine-1-carbonyl)-2-methyl-propyl]-carbamic acid methyl ester], it took 4 nM to reach half-maximal inhibition (IC50).

In the case of `COC(=O)N[C@H](C(=O)N1CCC[C@H]1C(=O)NC1Cc2ccc(-c3ccc(-c4cnc([C@@H]5CCCN5C(=O)[C@@H](NC(=O)OC)C(C)C)[nH]4)cc3)cc2C1)C(C)C` (stereo partly drawn) [I-9, ((S)-1-{(S)-2-[5-(4-{2-[(S)-1-((S)-2-Methoxycarbonylamino-3-methyl-butyryl)-pyrrolidin-2-yl]-3H-imidazol-4-yl}-phenyl)-indan-2-ylcarbamoyl]-pyrrolidine-1-carbonyl}-2-methyl-propyl)-carbamic acid methyl ester], it took 0.43 nM to reach half-maximal inhibition (IC50).

`COC(=O)N[C@H](C(=O)N1CCC[C@H]1c1ncc(-c2ccc(-c3ccc4cc(NC(=O)[C@@H]5CCCN5C(C)=O)ccc4n3)cc2)[nH]1)C(C)C` [I-11, ((S)-1-{(S)-2-[5-(4-{6-[((S)-1-Acetyl-pyrrolidine-2-carbonyl)-amino]-quinolin-2-yl}-phenyl)-1H-imidazol-2-yl]-pyrrolidine-1-carbonyl}-2-methyl-propyl)-carbamic acid methyl ester] yielded an IC50 of 0.63 nM.

Regarding `COC(=O)N[C@H](C(=O)N1CCC[C@H]1c1ncc(-c2ccc(-c3ccc4cc(NC(=O)[C@@H]5CCCN5C(=O)C(C)C)ccc4n3)cc2)[nH]1)C(C)C` [I-13, ((S)-1-{(S)-2-[5-(4-{6-[((S)-1-Isobutyryl-pyrrolidine-2-carbonyl)-amino]-quinolin-2-yl}-phenyl)-1H-imidazol-2-yl]-pyrrolidine-1-carbonyl}-2-methyl-propyl)-carbamic acid methyl ester], the half-inhibitory concentration (IC50) stood at 1.06 nM.

Regarding `COC(=O)N[C@H](C(=O)N1CCC[C@H]1c1ncc(-c2ccc(-c3ccc4cc(NC(=O)[C@@H]5CCCN5C(=O)CC(C)C)ccc4n3)cc2)[nH]1)C(C)C` [I-14, [(S)-2-Methyl-1-((S)-2-{5-[4-(6-{[(S)-1-(3-methyl-butyryl)-pyrrolidine-2-carbonyl]-amino}-quinolin-2-yl)-phenyl]-1H-imidazol-2-yl}-pyrrolidine-1-carbonyl)-propyl]-carbamic acid methyl ester], the 50% inhibitory concentration (IC50) was found to be 1.7 nM.

`COC(=O)N[C@H](C(=O)N1CCC[C@H]1C(=O)NC1CCc2cc(-c3ccc(-c4cnc([C@@H]5CCCN5C(=O)[C@@H](NC(=O)OC)C(C)C)[nH]4)cc3)ccc2C1)C(C)C` (stereo partly drawn) [I-10, ((S)-1-{(S)-2-[6-(4-{2-[(S)-1-((S)-2-Methoxycarbonylamino-3-methyl-butyryl)-pyrrolidin-2-yl]-3H-imidazol-4-yl}-phenyl)-1,2,3,4-tetrahydro-naphthalen-2-ylcarbamoyl]-pyrrolidine-1-carbonyl}-2-methyl-propyl)-carbamic acid methyl ester]: the IC50 came out at 1.2 nM.

`COC(=O)N[C@H](C(=O)N1CCC[C@H]1C(=O)N1CCc2cc(-c3ccc(-c4cnc([C@@H]5CCCN5C(=O)[C@@H](NC(=O)OC)C(C)C)[nH]4)cc3)ccc2C1)C(C)C` [I-12, ((S)-1-{(S)-2-[5-(4-{2-[(S)-1-((S)-2-Methoxycarbonylamino-3-methyl-butyryl)-pyrrolidine-2-carbonyl]-1,2,3,4-tetrahydro-isoquinolin-6-yl}-phenyl)-1H-imidazol-2-yl]-pyrrolidine-1-carbonyl}-2-methyl-propyl)-carbamic acid methyl ester] showed a half-inhibitory concentration (IC50) of 2.06 nM.
